Assay results reported in PMC11889964, “Surveying helix 12 dynamics within constitutively active estrogen receptors using bipartite tetracysteine display” (The Journal of Biological Chemistry, 2025).
Numbering of substitutions follows the chain as printed.

Experiments:
Format in all cases: binding
[1] = biological target: T1, ERα-LBD-ΔC4 (Homo sapiens, UniProt P03372, A546C/C417S/C530A/E380C/H547C); experiment: Kinetic FlAsH-ER assay, FlAsH apparent rate constants (kon); settings: 1 μM FlAsH-EDT2, 10 μM protein
T1 construct: pMCSG7 leader with TEV site (ENLYFQ/SNA); made in house; host or cells: E. coli BL21(DE3)
T1 sequence (P03372 with tags, fused parts or gaps E380C/C417S/C530A/A546C/H547C): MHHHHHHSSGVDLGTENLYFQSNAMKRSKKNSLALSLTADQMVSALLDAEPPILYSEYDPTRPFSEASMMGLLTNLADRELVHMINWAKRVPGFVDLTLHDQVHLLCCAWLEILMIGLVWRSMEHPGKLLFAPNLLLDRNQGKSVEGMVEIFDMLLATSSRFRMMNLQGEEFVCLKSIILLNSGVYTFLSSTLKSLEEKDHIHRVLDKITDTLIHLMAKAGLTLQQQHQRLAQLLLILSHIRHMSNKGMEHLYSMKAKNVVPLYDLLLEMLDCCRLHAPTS
Experimental: (§1) Kinetic experiments were performed on 384-well black, flat-bottom plates (catalog no.: 3575; Corning) with wells containing 25 μl total reaction volume. ERα-LBDs (10 μM) were incubated in 25 μl of binding buffer supplemented with 1 mM TCEP overnight at room temperature. […] Aliquots of EDT and FlAsH-EDT2 (1 μl) at respective final concentrations of 10 μM and 1 μM in binding buffer were then added to the samples. The change in fluorescence of each sample was then collected over 6 h with measurements taken at 1 min intervals. Data were collected using a SpectraMax M5e multimode plate reader, with an excitation wavelength of 508 nm and an emission wavelength of 530 nm. The data were processed using Kaleidagraph, version 4.5, and apparent rate constants (kon) were determined through curve fitting using the equation below: Fobs=Fmin+(Fmax−Fmin)(1−e^(−kT)) where Fobs is the observed fluorescence; Fmin is the minimum fluorescence value; Fmax represents the maximum fluorescence value; T is time in minutes; and k is the apparent rate constant.

[2] = biological target: T2, ERα-LBD-ΔC4(D538G) (Homo sapiens, UniProt P03372, A546C/C417S/C530A/D538G/E380C/H547C); experiment: as above; settings: 1 μM FlAsH-EDT2, 10 μM protein
T2 construct: pMCSG7 leader with TEV site (ENLYFQ/SNA); made in house; host or cells: E. coli BL21(DE3)
T2 sequence (P03372 with tags, fused parts or gaps E380C/C417S/C530A/D538G/A546C/H547C): T1 sequence (P03372 with tags, fused parts or gaps E380C/C417S/C530A/A546C/H547C) with D265G
Experimental: as §1

[3] = biological target: T3, ERα-LBD-ΔC4(Y537S) (Homo sapiens, UniProt P03372, A546C/C417S/C530A/E380C/H547C/Y537S); experiment: as above; settings: 1 μM FlAsH-EDT2, 10 μM protein
T3 construct: pMCSG7 leader with TEV site (ENLYFQ/SNA); made in house; host or cells: E. coli BL21(DE3)
T3 sequence (P03372 with tags, fused parts or gaps E380C/C417S/C530A/Y537S/A546C/H547C): T1 sequence (P03372 with tags, fused parts or gaps E380C/C417S/C530A/A546C/H547C) with Y264S
Experimental: as §1

[4] = biological target: T1, ERα-LBD-ΔC4; experiment: Titration FlAsH-ER assay, FlAsH apparent equilibrium dissociation constants (Kapp)
Experimental: (§2) Titration experiments were performed on 384-well black, flat-bottom plates (catalog no.: 3575; Corning) with wells containing 25 μl total reaction volume^. ERα-LBDs (10 μM) were incubated in 25 μl of binding buffer supplemented with 1 mM TCEP overnight at room temperature. […] The solutions were then transferred to a fresh 384-well black, flat-bottom plate (catalog no.: 3575; Corning) and serially diluted with binding buffer. EDT and FlAsH-EDT2 (1 μl) in binding buffer were then immediately added at final concentrations of 10 μM and 1 μM, respectively. The reactions were then allowed to incubate in the dark for 6 h at room temperature. Fluorescence counts for each sample were then measured using a SpectraMax M5e multimode plate reader, with an excitation wavelength of 508 nm and an emission wavelength of 530 nm. Data were processed using SoftMax Pro software, version 6.4 and Kaleidagraph, version 4.5. The Kapp for each complex was defined by curve fitting using the equation below. Fobs=Fmin+(Fmax−Fmin/2L)(L+P+Kapp−((L+P+Kapp)^2−(4LP))^0.5) where Fobs is the observed fluorescence; P represents the total protein concentration; L is the total concentration of FlAsH-EDT2; Fmin is the minimum fluorescence value; Fmax represents the maximum fluorescence value; and Kapp is the apparent equilibrium dissociation constant.

[5] = biological target: T2, ERα-LBD-ΔC4(D538G); experiment: as above
Experimental: as §2

[6] = biological target: T3, ERα-LBD-ΔC4(Y537S); experiment: as above
Experimental: as §2

[7] = biological target: T1, ERα-LBD-ΔC4; experiment: Endpoint fluorescence FlAsH-ER assay; settings: unliganded ERα-LBD-ΔC4; 1 μM FlAsH-EDT2, 6 h
Experimental: Endpoint fluorescence experiments were performed in triplicate on 384-well black, flat-bottom plates (catalog no.: 3575; Corning) with wells containing 25 μl total reaction volume. The protein (10 μM) was incubated in FlAsH binding buffer (50 mM Tris base, 500 mM KCl, 2 mM DTT, 1 mM EDTA, 1 mM Na3VO4, 10% glycerol, pH 8.0) supplemented with 1 mM TCEP overnight at room temperature. […] Following incubation, 1 μl aliquots of EDT and FlAsH-EDT2 in binding buffer were added at final concentrations of 10 μM and 1 μM, respectively. The reaction mixtures were then allowed to incubate in the dark for 6 h at room temperature. Following incubation, the fluorescence of each sample was measured using a SpectraMax M5e multimode plate reader (Molecular Devices), with an excitation wavelength of 508 nm and an emission wavelength of 530 nm. Data were collected using SoftMax Pro software, version 6.4 (Molecular Devices) and processed using Kaleidagraph, version 4.5 (Synergy).

In the case of O=C(O)c1ccccc1-c1c2ccc(=O)c([As]3SCCS3)c-2oc2c([As]3SCCS3)c(O)ccc12 [FlAsH], the kon ([1]; liganded receptor (+10 μM E2)) is reported as 310 M⁻¹ s⁻¹, the kon ([1]; unliganded receptor (−E2)) is reported as 447 M⁻¹ s⁻¹ and the kon ([2]; liganded receptor (+10 μM E2)) is reported as 1170 M⁻¹ s⁻¹. For the same compound, the kon ([2]; unliganded receptor (−E2)) was 838 M⁻¹ s⁻¹, the kon ([3]; liganded receptor (+10 μM E2)) was 900 M⁻¹ s⁻¹ and the kon ([3]; unliganded receptor (−E2)) was 491 M⁻¹ s⁻¹. It also gave a Kd ([4]; liganded receptor (+E2)) of 1220 ± 700 nM, a Kd ([4]; unliganded receptor (−E2)) of 940 ± 560 nM and a Kd ([5]; liganded receptor (+E2)) of 160 ± 60 nM. It also gave a Kd ([5]; unliganded receptor (−E2)) of 570 ± 370 nM, a Kd ([6]; liganded receptor (+E2)) of 540 ± 330 nM and a Kd ([6]; unliganded receptor (−E2)) of 900 ± 650 nM. The “increase in endpoint fluorescence compared with ERα-LBD-ΔC0” value [7] was 10 fold.
